Molecular target: Hepatitis C virus NS3 protease (Hepatitis C virus)
Test: Inhibitory activity evaluated in the HCV protease binding assay

IC50: 2800 nM
Structure (SMILES): O=C1OC[C@H]2O[C@@H](Oc3cc(O)c4c(c3)OC(c3ccccc3)CC4=O)[C@H](O)[C@@H](O)[C@@H]2OC(=O)c2cc(O)c(O)c(O)c2-c2c1cc(O)c(O)c2O (stereo partly specified) [2,3,4,5,6,7,14,15-octahydroxy-13-(5-hydroxy-4-oxo-2-phenyl-3,4-dihydro-2H-7-chromenyloxy)-9,11,11a,13,14,15,15a,17-octahydrodibenzo[g,i]pyrano[3,2-b][1,5]dioxacycloundecine-9,17-dione]

— BindingDB's records for doi:10.1016/s0960-894x(03)00584-5 (Schering-Plough Research Institute, 2003)
